In patent US8912221B2, “Biaryl amide derivatives” (Hoffmann-La Roche Inc., priority 2010, dated 2014):

Assays:
Bradykinin-1 receptor [1] = molecular target: T1, Bradykinin-1 receptor (Homo sapiens (Human), UniProt P46663); assay: Receptor Binding Assay; conditions: membranes from CHO-K1 cells overexpressing Bradykinin-1 receptor; 6 nM [3H]Kallidin (Des Arg10, Leu9); read-out: B1R Binding Ki
Protocol: Binding assays were done with membranes from CHO-K1 cells overexpressing Bradykinin-1 receptor.
For binding, Bradykinin-1 receptor antagonist compounds were added in various concentrations in 50 mM Tris pH 7.4, 5 mM MgCl2 together with 6 nM Kallidin (Des Arg^10, Leu^9), [3,4-Prolyl-3,4-^3H(N)] (PerkinElmer, 1.85-4.44 TBq/mmol) to 40 μg membrane protein containing approximately 1 fmol Bradykinin-1 receptor and incubated for 15 min at 27° C. To determine non-specific binding 10 μM Lys-(Des-Arg^9)-Bradykinin (Bachem) was added. Membranes were harvested through GF/B (glass fiber filter; PerkinElmer) plates, equilibrated with 0.5% polyethylenimine, air dried at 50° C. for 2 hr. Radioactivity was determined by counting in a topcounter (NXT Packard). Specific binding was defined as total binding minus nonspecific binding and typically represents about 90-95% of the total binding. Antagonist activity is expressed as Ki: inhibitor concentration required for 50% inhibition of specific binding corrected for the concentration of the radioligand.

Bradykinin-1 receptor [2] = molecular target: T1, Bradykinin-1 receptor; assay: Calcium Mobilization Assay; format: cell-based; conditions: GeneBLAzer Bradykinin (B1)-NFAT-bla CHO-K1 cells; antagonist activity, FLIPR; read-out: Ca mobilization IC50
Protocol: Calcium Mobilization Assay
GeneBLAzer® Bradykinin (B1)-NFAT-bla CHO-K1 cells (from Invitrogen) stably overexpressing the human bradykinin 1 receptor were cultured in DMEM (high glucose) supplemented with 10% dialysed FBS, 1% NEAA (non essential amino acids) 1% penicillin/streptomycin, 1% G418 and 0.1 mg/ml zeocin.
For the assay cells were grown overnight in 384-well black clear flat bottom polystyrene plates (Costar) at 37° C. at 5% CO2. After washing with DMEM, 20 mM Hepes, 2.5 mM probenecid, 0.1% BSA (DMEM assay buffer) cells were loaded with 4 μM Fluo-4 in the same DMEM assay buffer for 2 hours at 30° C. Excess dye was removed and cells were washed with DMEM assay buffer. 384-well compound plates were prepared with DMEM assay buffer/0.5% DMSO with or without various concentrations of test compounds. Usually compounds were tested for agonist and antagonist activity.
Test compounds were added to the assay plate and agonist activity was monitored as fluorescence for 80 seconds with a FLIPR (488 nm excitation; 510-570 nm emission; Molecular Devices). […] Increases in intracellular calcium are reported as maximum fluorescence after agonist exposure minus basal fluorescence before exposure. Antagonist activity is indicated as inhibitor concentration required for 50% inhibition of specific calcium increases.

T1 sequence (P46663 whole entry): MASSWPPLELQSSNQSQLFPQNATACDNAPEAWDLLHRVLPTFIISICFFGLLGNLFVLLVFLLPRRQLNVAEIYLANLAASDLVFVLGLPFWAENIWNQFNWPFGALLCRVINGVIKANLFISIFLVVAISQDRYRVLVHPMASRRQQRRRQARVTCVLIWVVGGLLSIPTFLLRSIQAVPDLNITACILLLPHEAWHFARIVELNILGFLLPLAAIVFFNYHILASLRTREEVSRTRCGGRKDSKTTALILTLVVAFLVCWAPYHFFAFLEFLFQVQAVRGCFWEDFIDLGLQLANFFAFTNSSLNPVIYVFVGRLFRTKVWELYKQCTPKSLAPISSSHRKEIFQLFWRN

Structure (SMILES)	Ki (Bradykinin-1 receptor [1]) [nM]	IC50 (Bradykinin-1 receptor [2]) [nM]
Cc1nc(-c2c(F)cc(Cl)cc2-c2cnc([C@@H](C)NC(=O)C3(NC(=O)c4cccnc4)COC3)c(F)c2)no1 [Example 30, N-[3-((R)-1-{5-[5-Chloro-3-fluoro-2-(5-methyl-[1,2,4]oxadiazol-3-yl)-phenyl]-3-fluoro-pyridin-2-yl}-ethylcarbamoyl)-oxetan-3-yl]-nicotinamide]	1.3	0.2
COc1ncc(C(=O)NC2(C(=O)N[C@H](C)c3ccc(-c4cc(Cl)cc(F)c4-c4noc(C)n4)cc3F)COC2)cn1 [Example 31, 2-Methoxy-pyrimidine-5-carboxylic acid (3-{(R)-1-[5′-chloro-3,3′-difluoro-2′-(5-methyl-[1,2,4]oxadiazol-3-yl)-biphenyl-4-yl]-ethylcarbamoyl}-oxetan-3-yl)-amide]	0.6	< 0.032
C[C@@H](NC(=O)C1(NC(=O)c2ccno2)COC1)c1ccc(-c2cc(Cl)cc(Cl)c2OCC(F)F)cc1F [Example 32, Isoxazole-5-carboxylic acid (3-{(R)-1-[3′,5′-dichloro-2′-(2,2-difluoro-ethoxy)-3-fluoro-biphenyl-4-yl]-ethylcarbamoyl}-oxetan-3-yl)-amide]	2.3	0.2
C[C@@H](NC(=O)C1(NC(=O)C(F)(F)F)COC1)c1ccc(-c2cc(Cl)cc(Cl)c2OCC(F)F)cc1F [Example 33, 3-(2,2,2-Trifluoro-acetylamino)-oxetane-3-carboxylic acid {(R)-1-[3′,5′-dichloro-2′-(2,2-difluoro-ethoxy)-3-fluoro-biphenyl-4-yl]-ethyl}-amide]	19.9	5.3
COc1cc(C(=O)NC2(C(=O)N[C@H](C)c3ncc(-c4cc(Cl)cc(F)c4-c4nnn(C)n4)cc3F)COC2)on1 [Example 34, 3-Methoxy-isoxazole-5-carboxylic acid [3-((R)-1-{5-[5-chloro-3-fluoro-2-(2-methyl-2H-tetrazol-5-yl)-phenyl]-3-fluoro-pyridin-2-yl}-ethylcarbamoyl)-oxetan-3-yl]-amide]	2.2	0.4
COc1ncc(C(=O)NC2(C(=O)N[C@H](C)c3ccc(-c4cc(Cl)cc(Cl)c4OCC(F)F)cc3F)COC2)cn1 [Example 35, 2-Methoxy-pyrimidine-5-carboxylic acid (3-{(R)-1-[3′,5′-dichloro-2′-(2,2-difluoro-ethoxy)-3-fluoro-biphenyl-4-yl]-ethylcarbamoyl}-oxetan-3-yl)-amide]	3.3	0.3
COc1ncc(C(=O)NC2(C(=O)N[C@H](C)c3ncc(-c4cc(Cl)cc(F)c4-c4nnn(C)n4)cc3F)COC2)cn1 [Example 36, 2-Methoxy-pyrimidine-5-carboxylic acid [3-((R)-1-{5-[5-chloro-3-fluoro-2-(2-methyl-2H-tetrazol-5-yl)-phenyl]-3-fluoro-pyridin-2-yl}-ethylcarbamoyl)-oxetan-3-yl]-amide]	1.2	0.2
COc1cc(C(=O)NC2(C(=O)N[C@H](C)c3ccc(-c4cc(Cl)cc(Cl)c4OCC(F)F)cc3F)COC2)on1 [Example 37, 3-Methoxy-isoxazole-5-carboxylic acid (3-{(R)-1-[3′,5′-dichloro-2′-(2,2-difluoro-ethoxy)-3-fluoro-biphenyl-4-yl]-ethylcarbamoyl}-oxetan-3-yl)-amide]	3.5	0.4
Cc1nnc(C(=O)NC2(C(=O)N[C@H](C)c3ccc(-c4cc(Cl)cc(Cl)c4OCC(F)F)cc3F)COC2)o1 [Example 38, 5-Methyl-[1,3,4]oxadiazole-2-carboxylic acid (3-{(R)-1-[3′,5′-dichloro-2′-(2,2-difluoro-ethoxy)-3-fluoro-biphenyl-4-yl]-ethylcarbamoyl}-oxetan-3-yl)-amide]	4.3	0.6
Cc1nnc(C(=O)NC2(C(=O)N[C@H](C)c3ncc(-c4cc(Cl)cc(Cl)c4OCC(F)F)cc3F)COC2)o1 [Example 39, 5-Methyl-[1,3,4]oxadiazole-2-carboxylic acid [3-((R)-1-{5-[3,5-dichloro-2-(2,2-difluoro-ethoxy)-phenyl]-3-fluoro-pyridin-2-yl}-ethylcarbamoyl)-oxetan-3-yl]-amide]	8.7	3.9
COc1ncc(C(=O)NC2(C(=O)N[C@H](C)c3ncc(-c4cc(Cl)cc(Cl)c4OCC(F)F)cc3F)COC2)cn1 [Example 40, 2-Methoxy-pyrimidine-5-carboxylic acid [3-((R)-1-{5-[3,5-dichloro-2-(2,2-difluoro-ethoxy)-phenyl]-3-fluoro-pyridin-2-yl}-ethylcarbamoyl)-oxetan-3-yl]-amide]	1.1	0.1
Cc1nnsc1C(=O)NC1(C(=O)N[C@H](C)c2ncc(-c3cc(Cl)cc(Cl)c3OCC(F)F)cc2F)COC1 [Example 41, 4-Methyl-[1,2,3]thiadiazole-5-carboxylic acid [3-((R)-1-{5-[3,5-dichloro-2-(2,2-difluoro-ethoxy)-phenyl]-3-fluoro-pyridin-2-yl}-ethylcarbamoyl)-oxetan-3-yl]-amide]	7.1	3.6
COCC(=O)NC1(C(=O)N[C@H](C)c2ncc(-c3cc(Cl)cc(Cl)c3OCC(F)F)cc2F)COC1 [Example 42, 3-(2-Methoxy-acetylamino)-oxetane-3-carboxylic acid ((R)-1-{5-[3,5-dichloro-2-(2,2-difluoro-ethoxy)-phenyl]-3-fluoro-pyridin-2-yl}-ethyl)-amide]	119	201
COc1cc(C(=O)NC2(C(=O)N[C@H](C)c3ccc(-c4cc(Cl)cc(F)c4-c4nnn(C)n4)cc3F)COC2)on1 [Example 43, 3-Methoxy-isoxazole-5-carboxylic acid (3-{(R)-1-[5′-chloro-3,3′-difluoro-2′-(2-methyl-2H-tetrazol-5-yl)-biphenyl-4-yl]-ethylcarbamoyl}-oxetan-3-yl)-amide]	1.4	0.1
COc1ncc(C(=O)NC2(C(=O)N[C@H](C)c3ccc(-c4cc(Cl)cc(F)c4-c4nnn(C)n4)cc3F)COC2)cn1 [Example 44, 2-Methoxy-pyrimidine-5-carboxylic acid (3-{(R)-1-[5′-chloro-3,3′-difluoro-2′-(2-methyl-2H-tetrazol-5-yl)-biphenyl-4-yl]-ethylcarbamoyl}-oxetan-3-yl)-amide]	1.1	0.1
